Data from patent US8557816B2, “Aurora kinase modulators and method of use” (Amgen Inc., priority 2007, dated 2013).

Tests used:
[1] = molecular target: T1, AuroraB (Homo sapiens, UniProt Q96GD4); test: AuroraB Homogeneous Time Resolved Fluorescent (HTRF) kinase assay; format: biochemical; settings: average; read-out: AurB_IC50_IP (uM Avg)
T1 construct: 20 μL of AuroraB FL H is for a final volume of 41 μL; His
Outline: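 Full-length His-tagged kinase phosphorylates biotinylated Histone H3 (0.1 μM final) with ATP in pH 7.5 HEPES containing MgCl, MnCl, DTT and BSA for about 90 min. EDTA-containing detection mix with SA-APC and Eu-anti-phosphoHistone H3 then equilibrated about 60 min; HTRF read with 320 nm excitation, emissions 615/655 nm.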

[2] = molecular target: T2, AuroraA-TPX2 (Homo sapiens, UniProt O14965); test: AuroraA-TPX2 Homogeneous Time Resolved Fluorescent (HTRF) kinase assay; format: biochemical; settings: average; read-out: AurA_IC50_IP (uM Avg)
T2 construct: 20 μL of AuroraA-TPX2 KD GST for a final volume of about 41 μL; GST
T2 sequence (O14965 133-383 limits assumed): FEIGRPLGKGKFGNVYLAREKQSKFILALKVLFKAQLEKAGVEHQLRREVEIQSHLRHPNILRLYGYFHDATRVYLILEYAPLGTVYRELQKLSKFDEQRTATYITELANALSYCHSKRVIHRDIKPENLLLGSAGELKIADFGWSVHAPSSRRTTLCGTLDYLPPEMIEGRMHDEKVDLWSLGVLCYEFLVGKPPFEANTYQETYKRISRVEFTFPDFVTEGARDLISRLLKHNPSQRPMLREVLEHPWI
T2 sequence (Q9ULW0 1-43 partner limits assumed): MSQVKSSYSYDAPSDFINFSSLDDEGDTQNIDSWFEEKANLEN
Outline: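 HTRF read-out (Eu 615 nm to APC 655 nm) of phosphorylated biotin-PLK, detected with 0.02 nM europium anti-phosphoPLK antibody and 0.0005 mg/mL SA-APC after overnight equilibration.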

T1 sequence (Q96GD4 whole entry): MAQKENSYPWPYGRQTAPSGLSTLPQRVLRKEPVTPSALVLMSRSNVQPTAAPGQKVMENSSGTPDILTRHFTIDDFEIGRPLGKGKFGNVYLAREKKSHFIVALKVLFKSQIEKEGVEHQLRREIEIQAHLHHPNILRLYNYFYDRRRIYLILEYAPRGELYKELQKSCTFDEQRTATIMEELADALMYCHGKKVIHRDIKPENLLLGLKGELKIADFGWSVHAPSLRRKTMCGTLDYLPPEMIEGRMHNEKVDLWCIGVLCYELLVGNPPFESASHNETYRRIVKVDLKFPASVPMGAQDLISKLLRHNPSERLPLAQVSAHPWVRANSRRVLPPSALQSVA

SMILES | IC50 [1] [µM] | IC50 [2] [µM]
CCc1cc(-c2ccccc2)nnc1Nc1ccc(Oc2ccnc3cc(C#N)ccc23)cc1 [compound 149, 4-((4-((4-ethyl-6-phenyl-3-pyridazinyl)amino)phenyl)oxy)-7-quinolinecarbonitrile] | 0.014 | 0.146
COc1cc2nccc(Oc3ccc(Nc4nnc(-c5cccc(C)n5)c5ccccc45)cc3)c2cc1OC [compound 150, N-(4-((6,7-bis(methyloxy)-4-quinolinyl)oxy)phenyl)-4-(6-methyl-2-pyridinyl)-1-phthalazinamine] | 0.007 | 0.014
COc1cnc2c(Oc3ccc(Nc4nnc(-c5cc(C)cs5)c5ccccc45)cc3)ccnc2c1 [compound 152, N-(4-((7-(methyloxy)-1,5-naphthyridin-4-yl)oxy)phenyl)-4-(4-methyl-2-thienyl)-1-phthalazinamine] | 0.006 | 0.006
COc1cc2ncnc(Oc3ccc(Nc4nnc(-c5cc(C)cs5)c5ccccc45)cc3)c2cc1OC [compound 153, N-(4-((6,7-bis(methyloxy)-4-quinazolinyl)oxy)phenyl)-4-(4-methyl-2-thienyl)-1-phthalazinamine] | 0.012 | 0.009
COc1cnc2c(Oc3ccc(Nc4nnc(-c5ccc(C(C)C)cc5)c5ccccc45)cc3)ccnc2c1 [compound 155, 4-(4-(1-methylethyl)phenyl)-N-(4-((7-(methyloxy)-1,5-naphthyridin-4-yl)oxy)phenyl)-1-phthalazinamine] | 0.011 | 0.029
COc1cnc2c(Oc3ccc(Nc4nnc(-c5ccc6occc6c5)c5ccccc45)cc3)ccnc2c1 [compound 159, 4-(1-benzofuran-5-yl)-N-(4-((7-(methyloxy)-1,5-naphthyridin-4-yl)oxy)phenyl)-1-phthalazinamine] | 0.007 | 0.01
Cc1ccc(-c2nnc(Nc3ccc(Oc4ccnc5ccccc45)c(F)c3)c3ccccc23)cc1 [compound 161, N-(3-fluoro-4-(4-quinolinyloxy)phenyl)-4-(4-methylphenyl)-1-phthalazinamine] | 0.005 | 0.027
COc1cnc2c(Oc3ccc(Nc4nnc(-c5ccc(OC(F)(F)F)cc5)c5ccccc45)cc3)ccnc2c1 [compound 163, N-(4-((7-(methyloxy)-1,5-naphthyridin-4-yl)oxy)phenyl)-4-(4-((trifluoromethyl)oxy)phenyl)-1-phthalazinamine] | 0.009 | 0.072
COc1cnc2c(Oc3ccc(Nc4nnc(-c5ccc6c(c5)OCCO6)c5ccccc45)cc3)ccnc2c1 [compound 166, 4-(2,3-dihydro-1,4-benzodioxin-6-yl)-N-(4-((7-(methyloxy)-1,5-naphthyridin-4-yl)oxy)phenyl)-1-phthalazinamine] | 0.006 | 0.023
COc1cnc2c(Oc3ccc(Nc4nnc(-c5ccc6c(c5)CCO6)c5ccccc45)cc3)ccnc2c1 [compound 168, 4-(2,3-dihydro-1-benzofuran-5-yl)-N-(4-((7-(methyloxy)-1,5-naphthyridin-4-yl)oxy)phenyl)-1-phthalazinamine] | 0.005 | 0.008
COc1cnc2c(Oc3ccc(Nc4nnc(-c5csc6ccccc56)c5ccccc45)cc3)ccnc2c1 [compound 169, 4-(1-benzothien-3-yl)-N-(4-((7-(methyloxy)-1,5-naphthyridin-4-yl)oxy)phenyl)-1-phthalazinamine] | 0.009 | 0.01
Cc1csc(-c2nnc(Nc3ccc(Oc4ccnc5cc(C#N)ccc45)cc3)c3ccccc23)c1 [compound 170, 4-((4-((4-(4-methyl-2-thienyl)-1-phthalazinyl)amino)phenyl)oxy)-7-quinolinecarbonitrile] | 0.009 | 0.016
COc1cnc2c(Oc3ccc(Nc4nnc(-c5cc6ccccc6s5)c5ccccc45)cc3)ccnc2c1 [compound 171, 4-(1-benzothien-2-yl)-N-(4-((7-(methyloxy)-1,5-naphthyridin-4-yl)oxy)phenyl)-1-phthalazinamine] | 0.015 | 0.013
COc1cnc2c(Oc3ccc(Nc4nnc(-c5ccc(C(F)(F)F)c(Cl)c5)c5ccccc45)cc3)ccnc2c1 [compound 172, 4-(3-chloro-4-(trifluoromethyl)phenyl)-N-(4-((7-(methyloxy)-1,5-naphthyridin-4-yl)oxy)phenyl)-1-phthalazinamine] | 0.017 | 0.039
COc1cnc2c(Oc3ccc(Nc4nnc(N5CC[C@H]6CCCC[C@H]6C5)c5ccccc45)cc3)ccnc2c1 [compound 173, N-(4-((7-(methyloxy)-1,5-naphthyridin-4-yl)oxy)phenyl)-4-((4aR,8aR)-octahydro-2(1H)-isoquinolinyl)-1-phthalazinamine] | 0.019 | 0.019
O=C(Nc1cc(Oc2ccc(Nc3nnc(-c4ccccc4)c4ccccc34)cc2F)ccn1)N1CCOCC1 [compound 179, N-(4-((2-fluoro-4-((4-phenyl-1-phthalazinyl)amino)phenyl)oxy)-2-pyridinyl)-4-morpholinecarboxamide] | 0.043 | 0.18

The next lines start with the values.

IC50 [1] [µM] | IC50 [2] [µM] | SMILES
0.005 | 0.022 | COc1cnc2c(Oc3ccc(Nc4nnc(N5CCCCC5)c5ccccc45)cc3)ccnc2c1 [compound 151, N-(4-((7-(methyloxy)-1,5-naphthyridin-4-yl)oxy)phenyl)-4-(1-piperidinyl)-1-phthalazinamine]
0.004 | 0.018 | COc1cnc2c(Oc3ccc(Nc4nnc(-c5ccc(Cl)c(C#N)c5)c5ccccc45)cc3)ccnc2c1 [compound 154, 2-chloro-5-(4-((4-((7-(methyloxy)-1,5-naphthyridin-4-yl)oxy)phenyl)amino)-1-phthalazinyl)benzonitrile]
0.005 | 0.047 | CCCc1cc(-c2ccccc2)nnc1Nc1ccc(Oc2ccnc3cc(OC)cnc23)cc1 [compound 156, N-(4-((7-(methyloxy)-1,5-naphthyridin-4-yl)oxy)phenyl)-6-phenyl-4-propyl-3-pyridazinamine]
0.005 | 0.012 | COc1cnc2c(Oc3ccc(Nc4nnc(-c5ccc6c(c5)OCCN6C)c5ccccc45)cc3)ccnc2c1 [compound 157, 4-(4-methyl-3,4-dihydro-2H-1,4-benzoxazin-7-yl)-N-(4-((7-(methyloxy)-1,5-naphthyridin-4-yl)oxy)phenyl)-1-phthalazinamine]
0.005 | 0.037 | COc1cnc2c(Oc3ccc(Nc4nnc(-c5ccc(OC)nc5)c5ccccc45)cc3)ccnc2c1 [compound 158, N-(4-((7-(methyloxy)-1,5-naphthyridin-4-yl)oxy)phenyl)-4-(6-(methyloxy)-3-pyridinyl)-1-phthalazinamine]
0.004 | 0.012 | Cc1ccc(-c2nnc(Nc3ccc(Oc4ccnc5cc(C#N)ccc45)cc3)c3ccccc23)s1 [compound 162, 4-((4-((4-(5-methyl-2-thienyl)-1-phthalazinyl)amino)phenyl)oxy)-7-quinolinecarbonitrile]
0.003 | 0.04 | COc1ccc2c(Oc3ccc(Nc4nnc(-c5ccccc5)c5ccccc45)cc3)c(F)cnc2c1 [compound 164, N-(4-((3-fluoro-7-(methyloxy)-4-quinolinyl)oxy)phenyl)-4-phenyl-1-phthalazinamine]
0.004 | 0.013 | COc1cnc2c(Oc3ccc(Nc4nnc(-c5ccc6[nH]ccc6c5)c5ccccc45)cc3)ccnc2c1 [compound 167, 4-(1H-indol-5-yl)-N-(4-((7-(methyloxy)-1,5-naphthyridin-4-yl)oxy)phenyl)-1-phthalazinamine]
0.003 | 0.013 | CCOc1nc(-c2nnc(Nc3ccc(Oc4ccnc5cc(OC)cnc45)cc3)c3ccccc23)cs1 [compound 175, 4-(2-(ethyloxy)-1,3-thiazol-4-yl)-N-(4-((7-(methyloxy)-1,5-naphthyridin-4-yl)oxy)phenyl)-1-phthalazinamine]
0.002 | 0.007 | COc1cnc2c(Oc3ccc(Nc4nnc(-c5cc6ccccc6o5)c5ccccc45)cc3)ccnc2c1 [compound 176, 4-(1-benzofuran-2-yl)-N-(4-((7-(methyloxy)-1,5-naphthyridin-4-yl)oxy)phenyl)-1-phthalazinamine]
0.004 | 0.206 | COc1cnc2c(Oc3ccc(Nc4nnc(-c5ccc(C(N)=O)cc5)c5ccccc45)cc3)ccnc2c1 [compound 177, 4-(4-((4-((7-(methyloxy)-1,5-naphthyridin-4-yl)oxy)phenyl)amino)-1-phthalazinyl)benzamide]
0.002 | 0.035 | COc1cnc2c(Oc3ccc(Nc4nnc(-c5ccc(C)nc5F)c5ccccc45)cc3)ccnc2c1 [compound 178, 4-(2-fluoro-6-methyl-3-pyridinyl)-N-(4-((7-(methyloxy)-1,5-naphthyridin-4-yl)oxy)phenyl)-1-phthalazinamine]
0.004 | 0.027 | COc1cnc2c(Oc3ccc(Nc4nnc(-c5ccc(F)c(OC)c5)c5ccccc45)cc3)ccnc2c1 [compound 180, 4-(4-fluoro-3-(methyloxy)phenyl)-N-(4-((7-(methyloxy)-1,5-naphthyridin-4-yl)oxy)phenyl)-1-phthalazinamine]
